The test system of test [1] is α1,2,6 GABAΑ receptors. The test is described as follows: FMP assay, α1,2,6 receptors (summary). The format is cell-based, human. Conditions: range over subtypes; read-out: potency (IC50) at α1,2,6 receptors. The method, then: (§1) HEK293 cells were maintained in DMEM containing GlutaMAX-I, supplemented with 10% FBS and 1% penicillin-streptomycin and incubated at 37 °C and a humidity of 5% CO2. For expression of δ-containing GABAΑ receptors, a HEK293 Flp-In^ΤΜ cell line stably expressing the human GABAΑ δ-subunits (referred to as δ-HEK) was used and the γ-containing subtypes was expressed in a background HEK293 Flp-In^ΤΜ cell line stably expressing the G-protein coupled peptide receptor NPBWR2 (referred to as HEK background)[26], both positively selected for using 200 μg/mL hygromycin B. α1β2γ2 receptors were stably expressed in a HEK293 cell line maintained as above but with no selection (gift from Marianne L. Jensen, Neurosearch). […]
(§2) The FMP assay was performed as previously described with a few modifications. […] Data was obtained as changes in fluorescence units (∆RFU) by measuring emission at 560 nm caused by excitation at 530 nm. […]
(§3) Data obtained in the FMP assay are given as relative changes in fluorescence units (ΔRFU) by subtracting the average of the baseline fluorescence signal from the peak fluorescence signal after compound addition. […]

The target in test [2] is T1, human α4β1δ receptors in δ-HEK cells (Homo sapiens, UniProt P18505+P48169).
T1 construct: expressed in transfected cells; host or cells: δ-HEK (HEK293 Flp-In stably expressing human δ), transiently transfected with α4 and β1 1:1
The test is described as follows: Whole-cell patch-clamp electrophysiology, concentration-response. In kind it is cell-based. The source says: (§4) To express recombinant GABAΑ receptors human α1, α2, α3, α5, α6, β2, γ2 (pcDNA3.1/Zeo) and α4, β1 (pUNIV)[26] subunit cDNA were transiently transfected into either δ-HEK or HEK background cells. δ-HEK cells were transfected with α- and β-subunits in a 1:1 ration whereas HEK background cells were transfected with α-, β- and γ-subunits in a 1:1:2 ratio. Human BGT1 (pcDNA5/FRT)[43] was transiently transfected into the δ-HEK cell line. δ-HEK cells transfected for whole-cell patch-clamp recordings were co-transfected with green fluorescent protein (GFP) as well as α- and β-subunits in a 0.5:1:1 ratio (0.8 μg + 1.6 μg + 1.6 μg in a 6 cm dish) in order to identify transfected cells. The transfection was carried out using Polyfect as transfection reagent according to the manufactures protocol expect for using half the recommended volume of Polyfect.
(In general: In patch-clamp work, channel activity is measured electrically.)

Test [3] has as its system α3−5 containing GABAΑ receptors. Briefly: FMP assay, α3−5 containing receptors (summary). The format is cell-based, human. As to conditions: range over subtypes; read-out: potencies (IC50) at α3−5 containing receptors. The method, then: as §1, §2, §3
The target in test [4] is T2, human BGT1 (Homo sapiens, UniProt P48065).
T2 construct: expressed in transfected cells; host or cells: δ-HEK cells, transient transfection (pcDNA5/FRT)
T2 sequence (P48065 1-614): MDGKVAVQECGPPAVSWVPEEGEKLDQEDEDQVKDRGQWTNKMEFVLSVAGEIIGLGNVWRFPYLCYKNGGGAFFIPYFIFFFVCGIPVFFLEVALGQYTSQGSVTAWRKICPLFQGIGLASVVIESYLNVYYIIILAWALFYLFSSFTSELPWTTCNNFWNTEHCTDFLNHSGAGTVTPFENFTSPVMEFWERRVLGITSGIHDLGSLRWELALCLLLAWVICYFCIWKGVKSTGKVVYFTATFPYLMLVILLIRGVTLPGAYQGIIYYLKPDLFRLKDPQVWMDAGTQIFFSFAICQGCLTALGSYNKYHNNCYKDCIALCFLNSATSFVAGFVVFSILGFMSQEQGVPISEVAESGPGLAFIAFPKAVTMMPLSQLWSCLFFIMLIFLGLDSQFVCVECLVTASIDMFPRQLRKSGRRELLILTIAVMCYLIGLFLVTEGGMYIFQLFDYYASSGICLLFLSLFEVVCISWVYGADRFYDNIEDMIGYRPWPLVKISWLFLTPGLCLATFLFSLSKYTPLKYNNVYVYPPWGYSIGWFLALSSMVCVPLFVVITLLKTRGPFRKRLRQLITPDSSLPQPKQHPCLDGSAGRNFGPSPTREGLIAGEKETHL
Briefly: Fluorescence interference control: BGT1-mediated GABA uptake in the FMP assay. Conditions: 110 μM GABA uptake by BGT1 in δ-HEK cells; 2027 at 30, 10, 3 μM. In kind it is cell-based.
From the text: as §4
assay (perf ormed essentially as previously described in methods section and based on Al-Khawaja et al.).
in d-HEK cells was not decreased/quenched by 2027 in any of the tested concentrations. Data are shown as
means ± SD f rom a representative expe riment perf orme d in triplicate (n=2).
BGT1 expressed in HEK-δ cells

“Also recorded” adds a separate entry of the source.

T1 sequence (P48169 36-554): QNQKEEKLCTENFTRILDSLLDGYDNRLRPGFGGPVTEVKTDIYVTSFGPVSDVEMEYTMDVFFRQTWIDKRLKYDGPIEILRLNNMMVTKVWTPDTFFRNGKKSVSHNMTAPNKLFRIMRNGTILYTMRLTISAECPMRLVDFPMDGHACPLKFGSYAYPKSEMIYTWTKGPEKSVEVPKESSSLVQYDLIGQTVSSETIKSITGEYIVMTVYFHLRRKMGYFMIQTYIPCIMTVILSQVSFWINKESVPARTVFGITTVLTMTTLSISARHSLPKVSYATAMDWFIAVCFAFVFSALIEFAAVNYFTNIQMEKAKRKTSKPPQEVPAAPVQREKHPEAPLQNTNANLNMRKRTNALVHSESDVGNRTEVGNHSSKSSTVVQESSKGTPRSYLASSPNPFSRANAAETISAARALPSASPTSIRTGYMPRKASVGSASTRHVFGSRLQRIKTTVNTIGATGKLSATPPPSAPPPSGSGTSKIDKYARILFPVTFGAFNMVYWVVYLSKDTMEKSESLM
T1 sequence (P18505 26-474): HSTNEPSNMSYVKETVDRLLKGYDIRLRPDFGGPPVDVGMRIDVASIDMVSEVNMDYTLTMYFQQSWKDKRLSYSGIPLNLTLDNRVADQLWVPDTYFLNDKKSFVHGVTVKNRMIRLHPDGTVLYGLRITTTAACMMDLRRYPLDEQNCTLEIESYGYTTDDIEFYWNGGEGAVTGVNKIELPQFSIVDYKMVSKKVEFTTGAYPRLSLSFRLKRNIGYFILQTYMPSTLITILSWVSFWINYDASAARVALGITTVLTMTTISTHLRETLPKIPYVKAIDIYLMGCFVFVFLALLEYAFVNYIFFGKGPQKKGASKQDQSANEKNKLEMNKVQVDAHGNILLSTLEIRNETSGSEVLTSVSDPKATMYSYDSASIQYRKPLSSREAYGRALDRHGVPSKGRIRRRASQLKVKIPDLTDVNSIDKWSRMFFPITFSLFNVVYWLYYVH
T1 sequence (O14764 25-452 partner): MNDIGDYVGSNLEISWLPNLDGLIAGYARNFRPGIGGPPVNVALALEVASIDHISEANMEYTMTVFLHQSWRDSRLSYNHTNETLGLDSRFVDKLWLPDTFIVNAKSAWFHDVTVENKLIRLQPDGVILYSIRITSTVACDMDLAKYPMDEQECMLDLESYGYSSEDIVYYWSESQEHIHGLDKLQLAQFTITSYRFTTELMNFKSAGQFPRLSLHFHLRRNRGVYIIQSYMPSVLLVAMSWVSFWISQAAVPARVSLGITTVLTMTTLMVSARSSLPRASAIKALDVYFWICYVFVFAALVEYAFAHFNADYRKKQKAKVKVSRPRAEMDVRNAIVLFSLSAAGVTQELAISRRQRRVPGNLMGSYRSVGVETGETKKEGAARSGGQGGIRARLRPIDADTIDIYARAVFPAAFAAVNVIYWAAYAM

As a reminder, the IC50 is the concentration at which inhibition is half-maximal. On to `O=C(Nc1cccc(C(=O)N2CCC3(CCNCC3)CC2)c1)c1cccs1` [compound 018, N-(3-(3,9-diazaspiro[5.5]undecane-3-carbonyl)phenyl)thiophene-2-carboxamide], for which the IC50 was 0.24 to 0.79 µM in test [1], 0.0108 µM in test [2] and 0.037 to 0.088 µM in test [3]. Also, the “potency in patch-clamp relative to FMP assay” value in test [2] (α4β1δ) is listed as 9 times.

On to `CC(=O)Nc1cccc(C(=O)N2CCC3(CCNCC3)CC2)c1` [compound 2027, N-(3-(3,9-diazaspiro[5.5]undecane-3-carbonyl)phenyl)acetamide], for which the “interference with / quenching of the fluorescence signal” value in test [4] is reported as “does not quench; also recorded: do not interfere”.

(Values after PMC7308271, “Discovery of a new class of orthosteric antagonists with nanomolar potency at extrasynaptic GABAA receptors” (Scientific Reports, 2020).)
